Consider six compounds from ChEMBL document CHEMBL5230103, “Hydroxamic acid hybrids as the potential anticancer agents: An Overview” (Eur J Med Chem, 2020).

Usually IC50 stands for the concentration that inhibits the measured activity by half. The CC50 is the concentration that lowers cell viability or growth by half.

The nature of data set [1]: Cytotoxicity against human RWPE-1 cells assessed as inhibition of cell growth by MTT assay. In kind it is toxicity, cell-based.
In data set [2] the test system is HepG2. Kind of data set: Cytotoxicity against human HepG2 cells assessed as inhibition of cell growth by MTT assay. In kind it is functional, cell-based. In general terms: Formazan colour is commonly taken as a measure of viable cells.
In the next data set the test system is A549. In words: Cytotoxicity against human A549 cells assessed as inhibition of cell growth by MTT assay. In kind it is functional, cell-based.
Data set [3] concerns the target T1, Protein deacetylase HDAC6 (Homo sapiens, UniProt Q9UBN7).
T1 sequence (Q9UBN7 whole entry): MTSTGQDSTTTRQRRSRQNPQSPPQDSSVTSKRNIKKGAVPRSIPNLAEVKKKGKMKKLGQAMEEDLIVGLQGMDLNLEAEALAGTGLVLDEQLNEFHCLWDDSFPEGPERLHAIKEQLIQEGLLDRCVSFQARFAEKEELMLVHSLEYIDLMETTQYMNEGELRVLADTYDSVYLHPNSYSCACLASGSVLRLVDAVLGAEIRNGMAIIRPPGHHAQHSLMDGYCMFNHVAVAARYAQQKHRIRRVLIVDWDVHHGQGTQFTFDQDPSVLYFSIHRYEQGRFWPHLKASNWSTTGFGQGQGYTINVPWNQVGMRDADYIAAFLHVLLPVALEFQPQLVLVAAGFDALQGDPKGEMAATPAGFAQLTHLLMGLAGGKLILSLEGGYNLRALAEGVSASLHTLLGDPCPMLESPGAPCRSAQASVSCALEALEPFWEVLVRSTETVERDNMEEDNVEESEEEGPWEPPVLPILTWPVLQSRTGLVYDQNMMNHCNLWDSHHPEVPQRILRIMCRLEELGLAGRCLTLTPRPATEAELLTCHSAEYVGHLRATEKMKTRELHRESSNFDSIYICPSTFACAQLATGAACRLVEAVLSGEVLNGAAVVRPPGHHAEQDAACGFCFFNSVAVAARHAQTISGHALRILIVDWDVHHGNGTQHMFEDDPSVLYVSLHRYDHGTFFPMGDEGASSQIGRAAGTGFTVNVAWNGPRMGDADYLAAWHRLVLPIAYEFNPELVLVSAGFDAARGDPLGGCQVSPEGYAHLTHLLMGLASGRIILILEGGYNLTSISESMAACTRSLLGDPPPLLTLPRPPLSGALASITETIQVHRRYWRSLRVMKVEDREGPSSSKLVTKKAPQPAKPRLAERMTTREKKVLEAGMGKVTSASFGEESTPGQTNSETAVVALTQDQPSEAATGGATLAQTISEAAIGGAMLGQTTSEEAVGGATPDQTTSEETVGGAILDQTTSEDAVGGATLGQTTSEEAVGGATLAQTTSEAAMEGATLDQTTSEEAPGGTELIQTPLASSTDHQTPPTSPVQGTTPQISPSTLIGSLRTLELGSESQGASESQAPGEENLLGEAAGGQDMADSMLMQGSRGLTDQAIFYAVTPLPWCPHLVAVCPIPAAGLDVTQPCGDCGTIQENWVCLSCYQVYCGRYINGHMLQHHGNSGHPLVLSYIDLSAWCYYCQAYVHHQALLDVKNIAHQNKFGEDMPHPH
In words: Inhibition of HDAC6 (unknown origin).

A further data set concerns MDA-MB-231. Kind of data set: Cytotoxicity against human MDA-MB-231 cells assessed as inhibition of cell growth by MTT assay. It counts as functional, cell-based.
Data set [4] deals with PC-3. In words: Cytotoxicity against human PC-3 cells assessed as inhibition of cell growth by MTT assay. In kind it is functional, cell-based.
Data set [5] is described as follows: Cytotoxicity against African green monkey Vero cells assessed as inhibition of cell growth by MTT assay. In kind it is toxicity, cell-based, Chlorocebus sabaeus.
The next data set has as its target Histone deacetylase 1 (Homo sapiens, UniProt Q13547). In words: Inhibition of HDAC1 (unknown origin).
A short description of data set [6]: Selectivity index, ratio of CC50 for cytotoxicity against HEK293 cells to IC50 for cytotoxicity against human MCF7 cells. The conditions noted are these: HEK293 cells and MCF7 cells, read-out: Ratio CC50/IC50. In kind it is toxicity, cell-based.
The nature of data set [7]: Selectivity index, ratio of CC50 for cytotoxicity against HEK293 cells to IC50 for cytotoxicity against human A549 cells. In kind it is toxicity, cell-based. The conditions noted are these: HEK293 cells and A549 cells, read-out: Ratio CC50/IC50.
In data set [8] the test system is MCF7. Kind of data set: Cytotoxicity against human MCF7 cells assessed as inhibition of cell growth by MTT assay. It counts as functional, cell-based.
A short description of data set [9]: Selectivity index, ratio of CC50 for cytotoxicity against HEK293 cells to IC50 for cytotoxicity against human HeLa cells. In kind it is toxicity, cell-based. The note with it: HEK293 cells and HeLa cells, read-out: Ratio CC50/IC50.
Another data set deals with Histone deacetylase 3 (Homo sapiens, UniProt O15379). In words: Inhibition of HDAC3 (unknown origin).
A short description of data set [10]: Selectivity index, ratio of CC50 for cytotoxicity against HEK293 cells to IC50 for cytotoxicity against human Jurkat E6.1 cells. In kind it is toxicity, cell-based. The note with it: HEK293 cells and Jurkat E6.1 cells, read-out: Ratio CC50/IC50.
A further data set deals with Jurkat E6.1. In words: Cytotoxicity against human Jurkat E6.1 cells assessed as inhibition of cell growth by MTT assay. In kind it is functional, cell-based.
A short description of data set [11]: Selectivity index, ratio of CC50 for cytotoxicity against HEK293 cells to IC50 for cytotoxicity against mouse B16-F10 cells. It counts as toxicity, cell-based. The note with it: human, HEK293 cells and B16-F10 cells; read-out: Ratio CC50/IC50.
The next data set deals with HeLa. Kind of data set: Cytotoxicity against human HeLa cells assessed as inhibition of cell growth by MTT assay. In kind it is functional, cell-based.
The nature of data set [12]: Cytotoxicity against HEK293 cells by MTT assay. In kind it is toxicity, cell-based. The note with it: human.
For a further data set, the system named is B16-F10. Kind of data set: Cytotoxicity against mouse B16-F10 cells assessed as inhibition of cell growth by MTT assay. It counts as functional, cell-based.
Data set [13] concerns ASPC1. Kind of data set: Potency index, ratio of vorinostat IC50 to test compound IC50 for cytotoxicity against human ASPC1 cells assessed as inhibition of cell growth by SRB assay. In kind it is functional. A general note: The SRB assay estimates cell density from bound dye.
Data set [14] relates to PC-3. Kind of data set: Potency index, ratio of vorinostat IC50 to test compound IC50 for cytotoxicity against human PC-3 cells assessed as inhibition of cell growth by SRB assay. In kind it is functional.
For data set [15], the system named is ASPC1. In words: Cytotoxicity against human ASPC1 cells assessed as inhibition of cell growth by SRB assay. It counts as functional, cell-based.
For data set [16], the system named is PC-3. In words: Cytotoxicity against human PC-3 cells assessed as inhibition of cell growth by SRB assay. It counts as functional, cell-based.
In data set [17] the test system is SW-620. In words: Potency index, ratio of vorinostat IC50 to test compound IC50 for cytotoxicity against human SW620 cells assessed as inhibition of cell growth by SRB assay. It counts as functional.
The test system of data set [18] is SW-620. Kind of data set: Cytotoxicity against human SW620 cells assessed as inhibition of cell growth by SRB assay. It counts as functional, cell-based.
Another data set has as its target Histone deacetylase 2 (Homo sapiens, UniProt Q92769). Kind of data set: Inhibition of HDAC2 (unknown origin).
Data set [19] has as its system MCF7. In words: cells. In kind it is functional, cell-based. The note with it: Homo sapiens, MCF7, 72 h.
Description: Cytotoxicity against human MCF7 cells assessed as inhibition of cell growth measured after 72 hrs by MTT assay
In another data set the test system is Plasmodium berghei. Kind of data set: Antimalarial activity against hepatic stage of Plasmodium berghei infected in human Huh-7 cells preincubated for 1 hr followed by parasite addition and measured after 48 hrs by bioluminescence assay. It counts as functional, organism-based.
The next data set relates to U2OS. Kind of data set: cells. The conditions noted are these: Homo sapiens, 72 h. In kind it is functional, cell-based.
In data set [20] the test system is Plasmodium falciparum. In words: Antimalarial activity against erythrocytic stage of chloroquine susceptible Plasmodium falcipuram 3D7 measured after 3 days by HRP2-ELISA. The conditions noted are these: 3D7, 72 h. It counts as functional, organism-based.
The subject of data set [21] is Plasmodium falciparum. Kind of data set: Antimalarial activity against erythrocytic stage of chloroquine resistant Plasmodium falcipuram Dd2 measured after 3 days by HRP2-ELISA. In kind it is functional, organism-based. The note with it: Dd2, 72 h.
For data set [22], the system named is HepG2. In words: Cytotoxicity against human HepG2 cells assessed as inhibition of cell growth measured after 72 hrs by MTT assay. It counts as functional, cell-based. The note with it: HepG2, 72 h.
A further data set relates to SU-DHL-6. Kind of data set: Cytotoxicity against human SU-DHL-6 cells assessed as inhibition of cell growth by SRB assay. In kind it is functional, cell-based.
Another data set has as its system SNU-398. Kind of data set: Cytotoxicity against human SNU-398 cells assessed as inhibition of cell growth by SRB assay. It counts as functional, cell-based.
Another data set relates to Ramos. Kind of data set: Cytotoxicity against human Ramos cells assessed as inhibition of cell growth by SRB assay. In kind it is functional, cell-based.

SMILES strings stand for the structures.

Histone deacetylase 2, sequence (Q92769 whole entry): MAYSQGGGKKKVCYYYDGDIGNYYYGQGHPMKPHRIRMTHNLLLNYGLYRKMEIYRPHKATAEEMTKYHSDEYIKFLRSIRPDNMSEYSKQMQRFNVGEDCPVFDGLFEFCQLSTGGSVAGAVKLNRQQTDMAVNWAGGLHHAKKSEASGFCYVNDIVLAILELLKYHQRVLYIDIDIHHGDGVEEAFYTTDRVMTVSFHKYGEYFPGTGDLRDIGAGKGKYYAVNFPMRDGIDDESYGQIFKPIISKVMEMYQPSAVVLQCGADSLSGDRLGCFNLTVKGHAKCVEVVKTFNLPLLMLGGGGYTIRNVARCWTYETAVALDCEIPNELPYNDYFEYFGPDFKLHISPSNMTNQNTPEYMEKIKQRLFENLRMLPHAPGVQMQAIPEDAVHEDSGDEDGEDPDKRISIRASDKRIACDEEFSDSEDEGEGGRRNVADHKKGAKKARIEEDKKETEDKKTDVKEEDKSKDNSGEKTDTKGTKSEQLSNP
Histone deacetylase 1, sequence (Q13547 whole entry): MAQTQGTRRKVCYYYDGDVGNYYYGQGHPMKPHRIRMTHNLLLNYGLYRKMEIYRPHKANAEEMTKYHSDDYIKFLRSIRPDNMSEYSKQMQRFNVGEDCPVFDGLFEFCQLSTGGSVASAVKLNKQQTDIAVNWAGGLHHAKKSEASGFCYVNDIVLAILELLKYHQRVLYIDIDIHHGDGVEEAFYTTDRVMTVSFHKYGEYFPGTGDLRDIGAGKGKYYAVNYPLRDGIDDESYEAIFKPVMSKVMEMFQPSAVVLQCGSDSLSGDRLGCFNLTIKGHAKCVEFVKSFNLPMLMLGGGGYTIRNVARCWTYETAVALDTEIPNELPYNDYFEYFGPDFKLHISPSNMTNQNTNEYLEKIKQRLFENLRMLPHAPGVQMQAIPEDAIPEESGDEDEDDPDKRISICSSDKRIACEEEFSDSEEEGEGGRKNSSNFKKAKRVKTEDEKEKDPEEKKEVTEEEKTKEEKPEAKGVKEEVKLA
Histone deacetylase 3, sequence (O15379 whole entry): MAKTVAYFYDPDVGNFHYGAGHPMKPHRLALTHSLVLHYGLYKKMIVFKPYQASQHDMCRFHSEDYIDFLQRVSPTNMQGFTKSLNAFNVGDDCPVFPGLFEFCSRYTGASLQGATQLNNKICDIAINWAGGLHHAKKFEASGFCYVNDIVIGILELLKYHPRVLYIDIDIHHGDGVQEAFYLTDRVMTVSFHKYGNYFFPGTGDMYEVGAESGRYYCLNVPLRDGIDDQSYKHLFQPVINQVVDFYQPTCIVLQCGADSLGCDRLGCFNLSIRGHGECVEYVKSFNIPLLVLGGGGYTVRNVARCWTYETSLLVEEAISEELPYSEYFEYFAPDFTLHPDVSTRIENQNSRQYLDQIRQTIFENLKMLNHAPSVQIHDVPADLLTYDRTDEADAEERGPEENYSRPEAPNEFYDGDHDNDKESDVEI
Description for U2OS: Cytotoxicity against human U2OS cells assessed as inhibition of cell growth measured after 72 hrs by MTT assay

As for `N#Cc1cccc(-c2cn(CCCCCCn3cccc(/C=C/C(=O)NO)c3=O)nn2)c1`, the IC50 in [1] is over 50000 nM; in the data set on HepG2 [2], 600 nM; in the data set on A549, 600 nM; in [3] it was 49 nM; with MDA-MB-231, 600 nM; with PC-3 [4] it was 600 nM. Moreover, the 50% inhibitory concentration (IC50) in data set [5] was over 50000 nM; against Histone deacetylase 1 it was 35 nM.

In the case of `O=C(CCCN1CCN(C(=O)Nc2cccc3ncccc23)CC1)NO`, the selectivity ratio in data set [6], in data set [7], in data set [9], in data set [10] and in data set [11] was over 8.7 in each case. In addition, the IC50 in the data set with MCF7 [8] turned out to be 7190 nM; against Histone deacetylase 3, 4.42 nM; in the data set with A549, 7190 nM; with Jurkat E6.1, 7190 nM; with HeLa it was 7190 nM; with B16-F10 it was 7190 nM. The compound also returned a cytotoxic concentration (CC50) in [12] of over 100000 nM.

Take `CO/N=C1\CN(Cc2ccc(/C=C/C(=O)NO)cc2)c2ccc(F)cc21`: the “Ratio IC50” value in the data set with ASPC1 [13], with PC-3 [14] and with SW-620 [17] was 1.8 in each case. In addition, the half-inhibitory concentration (IC50) in the data set on ASPC1 [15] is 470 nM; in the data set on PC-3 [16], 470 nM; in the data set on SW-620 [18], 470 nM; against Histone deacetylase 2 it was 267 nM.

On to `O=C(/C=C/c1ccc(CN2C/C(=N\O)c3cc(Cl)ccc32)cc1)NO`, for which the “Ratio IC50” value with ASPC1 [13], with PC-3 [14] and in the data set with SW-620 [17] was 1.8 each time. Also, the IC50 in the data set on ASPC1 [15] was determined as 470 nM; with PC-3 [16], 470 nM; in the data set on SW-620 [18], 470 nM; at Histone deacetylase 2 it was 86 nM.

As to `COc1cc(NC(C)CCCCCNC(=O)CCC(=O)NO)c2ncccc2c1` (stereo not drawn), the IC50 in the data set with MCF7 [19] was determined as 1600 nM; in the data set with Plasmodium berghei, 300 nM; with U2OS, 3300 nM; with Plasmodium falciparum [20], 300 nM; in the data set with Plasmodium falciparum [21] it was 300 nM; in the data set on HepG2 [22] it was 1600 nM.

For the compound `CNC(=O)c1cc(Oc2ccc(NC(=O)Nc3ccc(Cl)c(C(F)(F)F)c3)cc2)ccn1` [SORAFENIB], the IC50 in the data set on SU-DHL-6, in the data set with SNU-398 and with Ramos was 1 nM each time.
